Measurements from patent US10785979B2, “Substituted ketoxime benzoylamides” (Bayer CropScience Aktiengesellschaft, priority 2015, dated 2020).

What was measured:
[1] = tested on: different harmful plants; experiment: Post-emergence comparative tests versus known compounds from WO 2013/064459 A1 (D1); type: in vivo; details: visual assessment after about 3 weeks; for Herbicidal efficacy against MATIN: Matricaria inodora; for Herbicidal efficacy against VIOTR: Viola tricolor; for Herbicidal efficacy against ALOMY: Alopecurus myosuroides
Protocol: Seeds of monocotyledonous and dicotyledonous weed and crop plants are laid out in sandy loam soil in wood-fiber pots, covered with soil and cultivated in a greenhouse under good growth conditions. 2 to 3 weeks after sowing, the test plants are treated at the one-leaf stage. The compounds of the invention, formulated in the form of wettable powders (WP) or as emulsion concentrates (EC), are then sprayed onto the green parts of the plants in the form of an aqueous suspension or emulsion at a water application rate equating to 600 to 800 I/ha, with addition of 0.2% wetting agent. After the test plants have been left to stand in the greenhouse under optimal growth conditions for about 3 weeks, the action of the preparations is assessed visually in comparison to untreated controls (herbicidal action in percent (%): 100% activity=the plants have died, 0% activity=like control plants). In this case, for example, compound Nos. 1-15, 1-71, 1-74, 2-15, 2-19, 2-67, 2-71, 2-74, 2-136, 3-15, 3-19, 4-19, 4-136, 5-15, 7-15, 7-19, 7-74, 8-1, 8-25, 8-26, 9-5, 9-25, 10-5 and 10-5, at an application rate of 80 g/ha, each show at least 80% efficacy against Abutilon theophrasti and Veronica persica.
(§1) 3. Comparative Experiments
(§2) In addition, comparative tests were conducted under the conditions specified above on different harmful plants between inventive compounds and the most structurally similar known compounds from WO 2013/064459 A1 (D1). The results listed in the tables which follow show the superiority of these compounds of the invention.
(§3) The abbreviations used here mean:
Post-Emergence Comparative Tests

[2] = tested on: different harmful plants; experiment: Pre-emergence comparative tests versus known compounds from WO 2013/064459 A1 (D1); type: in vivo; details: visual scoring after 3 weeks; for Herbicidal efficacy against AVEFA: Avena fatua; for Herbicidal efficacy against CYPES: Cyperus esculentus; for Herbicidal efficacy against VIOTR: Viola tricolor; for Herbicidal efficacy against STEME: Stellaria media; for Herbicidal efficacy against ECHCG: Echinochloa crus galli; for Herbicidal efficacy against POLCO: Polygonum convolvulus
From the text: Seeds of monocotyledonous and dicotyledonous weed plants and crop plants are laid out in wood-fiber pots in sandy loam and covered with soil. The compounds of the invention, formulated in the form of wettable powders (WP) or as emulsion concentrates (EC), are then applied to the surface of the covering soil in the form of an aqueous suspension or emulsion at a water application rate equating to 600 to 800 I/ha, with addition of 0.2% wetting agent. After the treatment, the pots are placed in a greenhouse and kept under good growth conditions for the trial plants. The damage to the test plants is scored visually after a test period of 3 weeks by comparison with untreated controls (herbicidal activity in percent (%): 100% activity=the plants have died, 0% activity=like control plants). In this case, for example, compound Nos. 1-15, 1-71, 1-74, 2-15, 2-19, 2-67, 2-71, 2-74, 2-136, 3-15, 3-19, 4-74, 5-15, 5-67, 5-71, 5-74, 6-15, 6-19, 6-67, 6-71, 6-74, 7-15, 7-19, 7-71, 7-74, 8-1, 8-25, 9-5, 9-25, 10-5 and 12-25, at an application rate of 320 g/ha, each show at least 80% efficacy against Abutilon theophrasti and Veronica persica.
as §1, §2, §3
Pre-Emergence Comparative Tests

Row | Compound | Herbicidal efficacy against AVEFA ([2]; 320 g a.i./ha) [%] | Herbicidal efficacy against VIOTR ([2]; 320 g a.i./ha) [%] | Herbicidal efficacy against MATIN ([1]; 80 g a.i./ha) [%] | Herbicidal efficacy against VIOTR ([1]; 80 g a.i./ha) [%] | further results
1 | CCON=C(C)c1c(Cl)ccc(C(=O)Nc2nnnn2C)c1Cl (single isomer, unassigned) [1-5] | 90 | 100 | – | – | Herbicidal efficacy against MATIN ([1]; 20 g a.i./ha): 90%; Herbicidal efficacy against VIOTR ([1]; 20 g a.i./ha): 90%; Herbicidal efficacy against CYPES ([2]; 320 g a.i./ha): 90%
2 | CC(=NOCC1CC1)c1c(Cl)ccc(C(=O)Nc2nnnn2C)c1Cl (single isomer, unassigned) [1-8] | 90 | 100 | 100 | – | Herbicidal efficacy against ALOMY ([1]; 80 g a.i./ha): 70%; Herbicidal efficacy against STEME ([2]; 320 g a.i./ha): 100%
3 | CCn1nnnc1NC(=O)c1ccc(Cl)c(C(C)=NOC)c1Cl (single isomer, unassigned) [2-1] | 100 | 100 | – | 100 | Herbicidal efficacy against ALOMY ([1]; 80 g a.i./ha): 60%; Herbicidal efficacy against CYPES ([2]; 320 g a.i./ha): 100%
4 | CCCn1nnnc1NC(=O)c1ccc(Cl)c(C(C)=NOC)c1Cl (single isomer, unassigned) [3-1] | 80 | 100 | – | – | Herbicidal efficacy against MATIN ([1]; 20 g a.i./ha): 80%; Herbicidal efficacy against VIOTR ([1]; 20 g a.i./ha): 100%; Herbicidal efficacy against CYPES ([2]; 320 g a.i./ha): 100%
5 | CCCn1nnnc1NC(=O)c1ccc(Cl)c(C(C)=NOCC)c1Cl (single isomer, unassigned) [3-5] | 70 | 100 | 90 | 100 | Herbicidal efficacy against STEME ([2]; 320 g a.i./ha): 100%
6 | CCCn1nnnc1NC(=O)c1ccc(Cl)c(C(C)=NOCC2CC2)c1Cl (single isomer, unassigned) [3-8] | – | – | 70 | 80 | –
7 | CCCn1nnnc1NC(=O)c1ccc(S(C)(=O)=O)c(C(C)=NOC)c1Cl (single isomer, unassigned) [3-15] | – | – | – | – | Herbicidal efficacy against MATIN ([1]; 20 g a.i./ha): 90%; Herbicidal efficacy against VIOTR ([1]; 20 g a.i./ha): 90%
8 | CCCn1nnnc1NC(=O)c1ccc(S(C)(=O)=O)c(C(C)=NOCC)c1Cl (single isomer, unassigned) [3-19] | – | – | – | 100 | Herbicidal efficacy against ALOMY ([1]; 80 g a.i./ha): 50%; Herbicidal efficacy against CYPES ([2]; 80 g a.i./ha): 80%; Herbicidal efficacy against ECHCG ([2]; 80 g a.i./ha): 90%; Herbicidal efficacy against VIOTR ([2]; 80 g a.i./ha): 100%
9 | CCON=C(C)c1c(Cl)ccc(C(=O)Nc2ncnn2C)c1Cl (single isomer, unassigned) [4-5] | – | 100 | – | 90 | Herbicidal efficacy against ALOMY ([1]; 80 g a.i./ha): 30%; Herbicidal efficacy against ECHCG ([2]; 320 g a.i./ha): 90%; Herbicidal efficacy against STEME ([2]; 320 g a.i./ha): 80%
10 | CCON=C(C)c1c(S(C)(=O)=O)ccc(C(=O)Nc2ncnn2C)c1Cl (single isomer, unassigned) [4-19] | – | – | – | – | Herbicidal efficacy against ALOMY ([1]; 20 g a.i./ha): 80%; Herbicidal efficacy against VIOTR ([1]; 20 g a.i./ha): 100%
11 | CON=C(C)c1c(Cl)ccc(C(=O)Nc2nonc2C)c1Cl (single isomer, unassigned) [6-1] | – | – | – | – | Herbicidal efficacy against ECHCG ([2]; 320 g a.i./ha): 60%; Herbicidal efficacy against POLCO ([2]; 320 g a.i./ha): 40%; Herbicidal efficacy against STEME ([2]; 320 g a.i./ha): 60%
12 | CON=C(C)c1c(S(C)(=O)=O)ccc(C(=O)Nc2nonc2C)c1Cl (single isomer, unassigned) [6-15] | – | – | 80 | 100 | –
13 | CCON=C(C)c1c(S(C)(=O)=O)ccc(C(=O)Nc2nonc2C)c1Cl (single isomer, unassigned) [6-19] | 30 | 100 | 70 | 100 | Herbicidal efficacy against CYPES ([2]; 320 g a.i./ha): 80%
14 | CCCn1nnnc1NC(=O)c1ccc(S(C)(=O)=O)c(C(C)=NOC)c1Cl (single isomer, unassigned) [10-5] | – | – | 100 | – | Herbicidal efficacy against ALOMY ([1]; 80 g a.i./ha): 60%
15 | CCCn1nnnc1NC(=O)c1ccc(S(C)(=O)=O)c(C(C)=NOCC)c1Cl (single isomer, unassigned) [10-6] | 40 | 100 | – | – | Herbicidal efficacy against MATIN ([1]; 20 g a.i./ha): 90%; Herbicidal efficacy against VIOTR ([1]; 20 g a.i./ha): 100%; Herbicidal efficacy against POLCO ([2]; 320 g a.i./ha): 60%
16 | CON=C(C)c1c(S(C)(=O)=O)ccc(C(=O)Nc2nonc2C)c1Cl (single isomer, unassigned) [13-5] | – | – | 60 | 90 | –
17 | CCON=C(C)c1c(S(C)(=O)=O)ccc(C(=O)Nc2nonc2C)c1Cl (single isomer, unassigned) [13-6] | 60 | 100 | 60 | 100 | Herbicidal efficacy against CYPES ([2]; 320 g a.i./ha): 60%
